Our source for the IC50 values is US8546608B2, “Proteasome inhibitors and methods of using the same” (Cephalon, Inc., priority 2003, dated 2013).

One may read the IC50 as the concentration that gives 50% inhibition. A higher IC50 goes with lower potency.

The target of the assay is T1, 20S Human Erythrocyte Proteasome (HEP) (Homo sapiens, UniProt P20618+P28074).
T1 construct: 20S Human Erythrocyte Proteasome (HEP), purchased from Immatics Biotechnologies Inc; purchased Immatics Biotechnologies Inc., Tübingen, Germany; host or cells: human erythrocytes (natural source)
Description: Chymotrypsin-like activity of 20S Human Erythrocyte Proteasome (HEP), IC50 determination. It is filed as biochemical. The following applies: assay of Example C, inhibition of HEP. How it is done:
Assay for Chymotrypsin-like Activity of 20S Human Erythrocyte Proteasome (HEP)
Proteasome chymotrypsin-like activity of compounds of the invention was assayed according to the following procedure.
In 96-well microtiter plates, 20S Human Erythrocyte Proteasome (HEP), purchased from Immatics Biotechnologies Inc., Tübingen, Germany was plated at 0.2 μg/mL (about 0.6 nM catalytic sites) in 0.04% SDS 20 mM Tris buffer. A fluorimetric substrate Suc-LLVY-AMC (succinyl-Leu-Leu-Val-Tyr-7-amido-4-methylcoumarin), purchased from Sigma Inc., St. Louis, Mo., USA was added to a final concentration of 100 μM from a stock solution of 10 mM in dimethylsulfoxide. Reaction volumes were 100 μl per well. […] Proteasome activity was determined under conditions in which substrate hydrolysis increased linearly with time and the change in fluorescence signal was proportional to the concentration of free AMC.
Determination of IC50 Values for HEP and α-Chymotrypsin Inhibitors
Inhibition of the chymotrypsin-like activity of HEP and of bovine α-chymotrypsin was determined by incubating the enzyme with various concentrations of putative inhibitors for 15 minutes at 37° C. (or room temperature for α-chymotrypsin) prior to the addition of substrate. Each experimental condition was evaluated in triplicate, and replicate experiments were performed for the inhibitors described herein.
`CCCCC(CC)CCC(=O)N[C@@H](CCCNC(=N)N[N+](=O)[O-])C(=O)N[C@@H](CC(C)C)B1O[C@@H]2C[C@@H]3C[C@@H](C3(C)C)[C@]2(C)O1` (mixture of isomers) [D.3.78, (RS)-4-Ethyloctanamide,N-[(1S)-1-[[[(1R)-1-[(3aS,4S,6S,7aR)-hexahydro-3a,5,5-trimethyl-4,6-methano-1,3,2-benzodioxaborol-2-yl]-3-methylbutyl]amino]carbonyl]-4-[[imino(nitroamino)methyl]amino]butyl]]: the IC50 is < 0.01 µM.

For the compound `CCCCC(C)CCC(=O)N[C@@H](CCCNC(=N)N[N+](=O)[O-])C(=O)N[C@@H](CC(C)C)B1O[C@@H]2C[C@@H]3C[C@@H](C3(C)C)[C@]2(C)O1` (mixture of isomers) [D.3.87, (RS)-4-Methyloctanamide,N-[(1S)-1-[[[(1R)-1-[(3aS,4S,6S,7aR)-hexahydro-3a,5,5-trimethyl-4,6-methano-1,3,2-benzodioxaborol-2-yl]-3-methylbutyl]amino]carbonyl]-4-[[imino(nitroamino)methyl]amino]butyl]], the IC50 is < 0.01 µM.

`CC(C)C[C@H](NC(=O)[C@H](CCCNC(=N)N[N+](=O)[O-])NC(=O)CN1CCCCC1)B1O[C@@H]2C[C@@H]3C[C@@H](C3(C)C)[C@]2(C)O1` [D.1.9, 2-Piperidin-1-yl-acetamide,N-[(1S)-1-[[[(1R)-1-[(3aS,4S,6S,7aR)-hexahydro-3a,5,5-trimethyl-4,6-methano-1,3,2-benzodioxaborol-2-yl]-3-methylbutyl]amino]carbonyl]-4-[[imino(nitroamino)methyl]amino]butyl]]: the IC50 was < 0.1 µM.

Regarding `C=CCCCCCCCC(=O)N[C@@H](CCCNC(=N)N[N+](=O)[O-])C(=O)N[C@@H](CC(C)C)B1O[C@@H]2C[C@@H]3C[C@@H](C3(C)C)[C@]2(C)O1` [D.3.68, Dec-9-enamide,N-[(1S)-1-[[[(1R)-1-[(3aS,4S,6S,7aR)-hexahydro-3a,5,5-trimethyl-4,6-methano-1,3,2-benzodioxaborol-2-yl]-3-methylbutyl]amino]carbonyl]-4-[[imino(nitroamino)methyl]amino]butyl]], the IC50 was < 0.01 µM.

Turning to `CCCCCCCC/C=C/C(=O)N[C@@H](CCCNC(=N)N[N+](=O)[O-])C(=O)N[C@@H](CC(C)C)B1O[C@@H]2C[C@@H]3C[C@@H](C3(C)C)[C@]2(C)O1` [D.3.69, (E)-Undec-2-enoic acid amide,N-[(1S)-1-[[[(1R)-1-[(3aS,4S,6S,7aR)-hexahydro-3a,5,5-trimethyl-4,6-methano-1,3,2-benzodioxaborol-2-yl]-3-methylbutyl]amino]carbonyl]-4-[[imino(nitroamino)methyl]amino]butyl]], the IC50 is < 0.01 µM.

As for `Cc1ccc(CSCCC(=O)N[C@@H](CCCNC(=N)N[N+](=O)[O-])C(=O)N[C@@H](CC(C)C)B2O[C@@H]3C[C@@H]4C[C@@H](C4(C)C)[C@]3(C)O2)cc1` [D.3.76, 3-[(4-methylbenzyl)sulfanyl]propanamide,N-[(1S)-1-[[[(1R)-1-[(3aS,4S,6S,7aR)-hexahydro-3a,5,5-trimethyl-4,6-methano-1,3,2-benzodioxaborol-2-yl]-3-methylbutyl]amino]carbonyl]-4-[[imino(nitroamino)methyl]amino]butyl]], the IC50 was < 0.01 µM.

Regarding `CC(C)=CCC[C@H](C)CC(=O)N[C@@H](CCCNC(=N)N[N+](=O)[O-])C(=O)N[C@@H](CC(C)C)B1O[C@@H]2C[C@@H]3C[C@@H](C3(C)C)[C@]2(C)O1` [D.3.77, (3S)-3,7-Dimethyl-oct-6-enoic acid amide,N-[(1S)-1-[[[(1R)-1-[(3aS,4S,6S,7aR)-hexahydro-3a,5,5-trimethyl-4,6-methano-1,3,2-benzodioxaborol-2-yl]-3-methylbutyl]amino]carbonyl]-4-[[imino(nitroamino)methyl]amino]butyl]], the IC50 was < 0.01 µM.
